In one experiment the target is T1, PRMT5 (Homo sapiens, UniProt O14744).
T1 construct: His-tag; made in house; host or cells: Sf9 insect cells (Bac-to-Bac baculovirus)
Nature of the experiment: scintillation proximity assay (SPA) of PRMT5 methyltransferase activity. It counts as biochemical. Particulars: 0.5 μM H4(1–20)K20biotin, 0.5 μM 3H-SAM; for remaining activity at 10 µM: 0.5 h, remaining activity of the enzyme, single point SPA test, inhibitor 10 μM, read-out: Relative Activity of PRMT5 at 10 μM; for IC50: SPA, concentration-dependent, read-out: IC50 PRMT5 (converted). As to the method: (§1) The methyltransferase activities of PRMT5 and PRMT1 in the absence and presence of the synthetic inhibitors were measured by using the scintillation proximity assay (SPA) protocol (Table 1). In the initial test, the inhibitor concentration was set at 10 μM. H4(1–20)K20biotin [Ac-[…](biotin)-NH2] was used as the peptide substrate, at a final concentration of 0.5 μM. ^3H-SAM was used as the methyl donor at 0.5 μM. SAH was used as a control inhibitor. […] Analysis of the biochemical activity results against PRMT5 disclosed a few interesting structure–activity relationship (SAR) trends. […] If the hydroxyl group of 3 was changed to an amine (6), the potency was improved; however, the selectivity was abolished. Generally, compounds that contained positive charges (6, 20, 21, 22, 24) near the triazole ring had further improved potencies.
Human recombinant His-tag PRMT5 was co-expressed with His-tag MEP50 using the Bac-to-Bac baculovirus expression system (Invitrogen, Life Technologies, Carlsbad, CA, USA) as previously described. Briefly, pFB-LIC-Bse-PRMT5 and pFB-LIC-Bse-MEP50 were heat shock transformed in the DH10Bac E. coli to obtain the recombinant bacmids, and the bacmids were extracted using the PureLink HiPure Plasmid Miniprep Kit (Invitrogen, Thermo Scientific, Carlsbad, CA, USA). The purity and concentration of the plasmid were measured by a Nanodrop. Sf9 cells were cultured in Sf-900 II SFM medium until the cell density reached 1.5 × 10^6 cells/mL and cell viability was more than 95%. Cells were plated in a 6-well tissue culture plate at a density of 4 × 10^5 cells/mL per well. In total, 2 µg of PRMT5 and MEP50 recombinant bacmid were transfected into each well of cells. After 5 h of transfection, the transfection medium was replaced by 2 mL of Sf-900 II SFM + 100 U P/S per well. The medium was collected and centrifuged at 1000 rpm for 5 min to obtain the supernatant P1 viral stock after 7 days of inoculation at 27.5 °C. To obtain a higher titer of viral stock, P1 viral stock was amplified in a 6-well tissue culture plate containing 2 × 10^6 cells per well. In total, 0.1 MOI of P1 virus stock was added into each well. After 7 days of incubation at 27.5 °C, the cell medium was centrifuged at 1000 rpm for 5 min to obtain the P2 viral stock in the supernatant. The Baculovirus plaque assay was performed to determine the viral titer concentration; the target concentration range was 1 × 10^7–1 × 10^8 IFU/mL.
For the expression of PRMT5 and MEP50, Sf9 insect cells were cultured in suspension at 27.5 °C at a speed of 130 rpm in Expression Systems ESF 921 medium with 100 U P/S. In total, 200 mL of Sf9 cell culture was inoculated with PRMT5 and MEP50 P2 viral stocks when the cell density reached 1.5 × 10^6 cells/mL. After incubation for 72 h at 27.5 °C, the cells were harvested and centrifuged. PRMT5 and MEP50 protein were collected in the cell pellet for further purification. Cell pellets were disrupted twice at 100 psi in 25 mL of cell lysis buffer (50 mM Tris pH 8, 300 mM NaCl, 10% glycerol, 0.1% Triton X-100, 1 mM PMSF). Before the Ni-NTA purification, 10 mL of Ni-NTA resin (EMD Millipore, Burlington, MA, USA) was loaded into a 50 mL column and equilibrated with equilibration buffer (50 mM Tris pH 8, 250 mM NaCl, 30 mM Imidazole, 10% glycerol, 1 mM TCEP, 1 mM PMSF). After 60 min of cell lysate centrifugation at 4 °C at 18,000 rpm, the cell lysate supernatant was incubated with the equilibrated nickel resin. The resin was washed with equilibration buffer and protein was eluted with elution buffer (50 mM Tris pH 8, 250 mM NaCl, 300 mM Imidazole, 10% glycerol, 1 mM TCEP, 1 mM PMSF). For the dialysis of protein, elution samples were loaded into a 10,000 MWCO SnakeSkin (Thermo Scientific, Waltham, MA, USA) dialysis bag in the storage buffer (50 mM Tris pH 8, 250 mM NaCl, 10% glycerol, 1 mM TCEP). […]
(Scintillation proximity formats need no separation of bound from free tracer.)

Another experiment concerns the target PRMT1 (Homo sapiens, UniProt Q99873). Briefly: scintillation proximity assay (SPA) of PRMT1 methyltransferase activity. The settings on record: for remaining activity at 10 µM: 0.5 h, remaining activity of the enzyme, single point SPA test, inhibitor 10 μM, read-out: Relative Activity of PRMT1 at 10 μM; for IC50: SPA, concentration-dependent, read-out: IC50 PRMT1 (converted). The experiment is classed as biochemical. As to the method:
as §1
Inhibitor was dissolved in water to create a 10 mM stock concentration. This was then diluted in buffer (50 mM HEPES pH 8, 10 mM NaCl, 0.5 mM EDTA, 0.5 mM DTT in H2O) to create a series of working concentrations centered around an anticipated IC50. [H]^3-SAM and substrate were diluted together in buffer to working concentrations of […], respectively. To each well in a 96-well plate, 6 μL of the inhibitor solution was added, with negative and positive controls receiving buffer. In total, 6 μL of the [H]^3-SAM/substrate solution was then added to each well. The enzyme was then diluted in buffer to a working concentration of 0.83 μM, and 18 μL was added to each well, with negative controls receiving 18 μL of buffer. The plate was covered, and the reaction was allowed to run for 30 min and was then quenched with the addition of 30 μL of 100% iPrOH followed by 60 μL of 50% iPrOH in H2O. In total, 10 μL of 20 mg/mL streptavidin-coated scintillant beads were added and the plate was read using a MicroBeta (Perkin Elmer, Waltham, MA, USA) plate reader. The CPM counts in the absence of an inhibitor for each data set were considered as 100% activity. In the absence of the enzyme and inhibitor, the CPM counts in each data set were defined as background (0%).

A word on the IC50: it is the concentration that gives 50% inhibition.

Sequence of PRMT1 (Q99873 whole entry, species assumed): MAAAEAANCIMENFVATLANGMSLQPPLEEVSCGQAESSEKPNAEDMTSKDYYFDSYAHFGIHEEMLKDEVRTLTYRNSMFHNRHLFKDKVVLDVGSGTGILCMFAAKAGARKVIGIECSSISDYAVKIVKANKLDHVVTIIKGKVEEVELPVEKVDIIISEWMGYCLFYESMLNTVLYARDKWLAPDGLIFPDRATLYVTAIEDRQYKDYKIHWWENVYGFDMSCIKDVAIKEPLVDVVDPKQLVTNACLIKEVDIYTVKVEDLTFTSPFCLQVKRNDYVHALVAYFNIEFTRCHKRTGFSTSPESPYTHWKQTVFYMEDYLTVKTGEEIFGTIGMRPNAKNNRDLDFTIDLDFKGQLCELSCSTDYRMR
T1 sequence (O14744 whole entry): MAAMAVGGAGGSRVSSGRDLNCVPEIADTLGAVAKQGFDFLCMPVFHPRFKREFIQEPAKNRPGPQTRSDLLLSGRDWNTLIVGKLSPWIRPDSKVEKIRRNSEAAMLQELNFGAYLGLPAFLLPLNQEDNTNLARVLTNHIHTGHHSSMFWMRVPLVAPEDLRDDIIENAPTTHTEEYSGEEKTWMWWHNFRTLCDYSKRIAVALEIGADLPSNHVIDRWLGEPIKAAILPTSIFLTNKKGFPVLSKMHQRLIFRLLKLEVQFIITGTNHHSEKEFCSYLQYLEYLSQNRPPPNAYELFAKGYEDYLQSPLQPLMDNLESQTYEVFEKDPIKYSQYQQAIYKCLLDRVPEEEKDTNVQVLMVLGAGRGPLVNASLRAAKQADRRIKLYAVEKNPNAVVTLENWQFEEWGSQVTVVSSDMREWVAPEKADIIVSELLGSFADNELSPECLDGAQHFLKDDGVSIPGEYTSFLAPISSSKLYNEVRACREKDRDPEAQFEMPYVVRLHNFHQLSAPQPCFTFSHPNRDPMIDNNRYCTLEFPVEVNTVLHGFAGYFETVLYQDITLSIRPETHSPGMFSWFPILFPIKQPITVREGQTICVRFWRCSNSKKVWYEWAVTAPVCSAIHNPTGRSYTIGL
T1 sequence (Q9BQA1 whole entry partner): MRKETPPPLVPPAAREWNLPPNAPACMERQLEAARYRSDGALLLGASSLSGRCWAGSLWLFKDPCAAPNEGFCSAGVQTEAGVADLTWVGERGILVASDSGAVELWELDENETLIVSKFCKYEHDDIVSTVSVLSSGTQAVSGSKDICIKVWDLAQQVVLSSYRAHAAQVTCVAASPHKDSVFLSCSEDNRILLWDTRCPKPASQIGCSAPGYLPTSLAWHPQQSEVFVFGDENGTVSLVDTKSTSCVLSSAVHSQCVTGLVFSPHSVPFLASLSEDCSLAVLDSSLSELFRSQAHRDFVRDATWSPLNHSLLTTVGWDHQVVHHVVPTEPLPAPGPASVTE

On to `[N-]=[N+]=NC[C@H]1O[C@@H](n2cnc3c(N)ncnc32)[C@H](O)[C@@H]1O` [Compound 1, 5′-azido-5′-deoxyadenosine], for which the remaining activity at 10 µM at PRMT5 is 48 ± 9.7%; at PRMT1, 97.5 ± 7.6%. In addition, the 50% inhibitory concentration (IC50) at PRMT5 is 3 µM; on PRMT1, > 1000 µM.

On to `Nc1ncnc2c1ncn2[C@@H]1O[C@H](Cn2ccnn2)[C@@H](O)[C@H]1O` [Compound 2, (2R,3S,4R,5R)-2-((1H-1,2,3-triazol-1-yl)methyl)-5-(6-amino-9H-purin-9-yl)tetrahydrofuran-3,4-diol], for which the IC50 was 27 µM on PRMT5 and > 1000 µM on PRMT1.

Consider `Nc1ncnc2c1ncn2[C@@H]1O[C@H](Cn2cc(CO)nn2)[C@@H](O)[C@H]1O` [Compound 3, (2R,3R,4S,5R)-2-(6-amino-9H-purin-9-yl)-5-((4-(hydroxymethyl)-1H-1,2,3-triazol-1-yl)methyl)tetrahydrofuran-3,4-diol], for which the IC50 at PRMT5 is 4.4 µM; at PRMT1 it was > 1000 µM.

For the compound `COCc1cn(C[C@H]2O[C@@H](n3cnc4c(N)ncnc43)[C@H](O)[C@@H]2O)nn1` [Compound 4, (2R,3R,4S,5R)-2-(6-amino-9H-purin-9-yl)-5-((4-(methoxymethyl)-1H-1,2,3-triazol-1-yl)methyl)tetrahydrofuran-3,4-diol], the IC50 at PRMT5 was 144 µM; at PRMT1, > 1000 µM.

On to `Nc1ncnc2c1ncn2[C@@H]1O[C@H](Cn2cc(CCO)nn2)[C@@H](O)[C@H]1O` [Compound 5, (2R,3R,4S,5R)-2-(6-amino-9H-purin-9-yl)-5-((4-(2-hydroxyethyl)-1H-1,2,3-triazol-1-yl)methyl)tetrahydrofuran-3,4-diol], for which the IC50 on PRMT5 was 195 µM; at PRMT1, > 1000 µM.

In the case of `NCc1cn(C[C@H]2O[C@@H](n3cnc4c(N)ncnc43)[C@H](O)[C@@H]2O)nn1` [Compound 6, (2R,3R,4S,5R)-2-(6-amino-9H-purin-9-yl)-5-((4-(aminomethyl)-1H-1,2,3-triazol-1-yl)methyl)tetrahydrofuran-3,4-diol], the figures for the remaining activity at 10 µM on PRMT5 and on PRMT1 were 61 ± 8% and 96.3 ± 8%, respectively. Moreover, the half-maximal inhibitory concentration (IC50) at PRMT5 is 1.2 µM.

For `C[Si](C)(C)c1cn(C[C@H]2O[C@@H](n3cnc4c(N)ncnc43)[C@H](O)[C@@H]2O)nn1` [Compound 7, (2R,3R,4S,5R)-2-(6-amino-9H-purin-9-yl)-5-((4-(trimethylsilyl)-1H-1,2,3-triazol-1-yl)methyl)tetrahydrofuran-3,4-diol], the 50% inhibitory concentration (IC50) on PRMT5 was 8.3 µM; on PRMT1, > 1000 µM.

In the case of `CC(C)(C)c1cn(C[C@H]2O[C@@H](n3cnc4c(N)ncnc43)[C@H](O)[C@@H]2O)nn1` [Compound 8, (2R,3R,4S,5R)-2-(6-amino-9H-purin-9-yl)-5-((4-(tert-butyl)-1H-1,2,3-triazol-1-yl)methyl)tetrahydrofuran-3,4-diol], the IC50 is 7.7 µM at PRMT5 and > 1000 µM on PRMT1.

On to `C[Si](C)(C)Cc1cn(C[C@H]2O[C@@H](n3cnc4c(N)ncnc43)[C@H](O)[C@@H]2O)nn1` [Compound 9, (2R,3R,4S,5R)-2-(6-amino-9H-purin-9-yl)-5-((4-((trimethylsilyl)methyl)-1H-1,2,3-triazol-1-yl)methyl)tetrahydrofuran-3,4-diol], for which the IC50 on PRMT5 is > 200 µM; at PRMT1, > 1000 µM.

For the compound `Nc1ncnc2c1ncn2C1OC(Cn2cc(CCC(N)c3ccccc3)nn2)C(O)C1O` (stereo not drawn) [Compound 10], the remaining activity at 10 µM at PRMT5 stood at 71 ± 17%; at PRMT1 it was 103 ± 5.6%.

As to `Nc1ncnc2c1ncn2[C@@H]1O[C@H](Cn2cc(C(=O)O)nn2)[C@@H](O)[C@H]1O` [Compound 11, 1-(((2R,3S,4R,5R)-5-(6-amino-9H-purin-9-yl)-3,4-dihydroxytetrahydrofuran-2-yl)methyl)-1H-1,2,3-triazole-4-carboxylic acid], the remaining activity at 10 µM at PRMT5 came out at 74 ± 11%; at PRMT1 it was 96.9 ± 2.2%.

As for `Nc1ncnc2c1ncn2[C@@H]1O[C@H](Cn2cc(CCCC(=O)O)nn2)[C@@H](O)[C@H]1O` [Compound 12, 4-(1-(((2R,3S,4R,5R)-5-(6-amino-9H-purin-9-yl)-3,4-dihydroxytetrahydrofuran-2-yl)methyl)-1H-1,2,3-triazol-4-yl)butanoic acid], at PRMT5, the remaining activity at 10 µM stood at 73 ± 12% and the IC50 was > 400 µM. For the same compound, the remaining activity at 10 µM on PRMT1 was found to be 99.3 ± 6.7%.

With `Nc1ncnc2c1ncn2[C@@H]1O[C@H](Cn2cc(CCCCC(=O)O)nn2)[C@@H](O)[C@H]1O` [Compound 13, 5-(1-(((2R,3S,4R,5R)-5-(6-amino-9H-purin-9-yl)-3,4-dihydroxytetrahydrofuran-2-yl)methyl)-1H-1,2,3-triazol-4-yl)pentanoic acid], the remaining activity at 10 µM on PRMT5 came out at 57 ± 4.4%; on PRMT1 it was 92.7 ± 10%. Besides, at PRMT5, the IC50 is > 40 µM.

`Nc1ncnc2c1ncn2[C@@H]1O[C@H](Cn2cc(-c3ccccc3)nn2)[C@@H](O)[C@H]1O` [Compound 14, (2R,3R,4S,5R)-2-(6-amino-9H-purin-9-yl)-5-((4-phenyl-1H-1,2,3-triazol-1-yl)methyl)tetrahydrofuran-3,4-diol]: at PRMT5, the remaining activity at 10 µM was determined as 51 ± 5.7% and the half-inhibitory concentration (IC50) is 2.6 µM. Further, the remaining activity at 10 µM on PRMT1 is 90.1 ± 5.7%.

`Nc1ncnc2c1ncn2[C@@H]1O[C@H](Cn2cc(CNC(=O)c3ccccc3)nn2)[C@@H](O)[C@H]1O` [Compound 15, N-((1-(((2R,3S,4R,5R)-5-(6-amino-9H-purin-9-yl)-3,4-dihydroxytetrahydrofuran-2-yl)methyl)-1H-1,2,3-triazol-4-yl)methyl)benzamide]: on PRMT5, the remaining activity at 10 µM was found to be 94.2 ± 12% and the IC50 is > 40 µM. The remaining activity at 10 µM at PRMT1 was 123 ± 4.4%.

Consider `Nc1ncnc2c1ncn2[C@@H]1O[C@H](Cn2cc(CNC(=O)OCc3ccccc3)nn2)[C@@H](O)[C@H]1O` [Compound 16], for which the remaining activity at 10 µM on PRMT5 amounted to 80 ± 9.5%; on PRMT1 it was 101 ± 10%.
